In assay [1] the test system is Human RSV-A (“Long” strain). The assay is described as follows: RSV-A assay (CPE, ATPlite readout in Hep-2 cells). The class given is cell-based. Conditions: human respiratory syncytial virus, read-out: Human RSV-A (“Long” strain) EC50. The text has this: Hep-2 cells, (originally derived from tumors grown in irradiated-cortisonised weanling rats that had been injected with epidermoid carcinoma tissue from a person's larynx, but later found to be indistinguishable from HeLa cells by PCR DNA analysis), were used for the culturing of genotype A, “Long” strain RSV. Flasks were inoculated with RSV and viral stocks were collected once cytopathic effect (CPE) was greater than 90%. Viral stocks in 25% sucrose media were snap frozen using liquid nitrogen to increase viral stability. Viral stock titers were quantified by tissue culture infectious dose 50% (TCID50) using 8,000 cells per well and 3-fold viral dilutions across a 96-well plate, cultured for 4 days. Viral stock titers were also quantified by a plaque forming unit assay, as described elsewhere.
Following extensive parameter testing, the final assay is run as follows: Hep-2 cells are seeded into the inner 60 wells of a 96-well plate at 8,000 cells per well in a volume of 50 μL using Growth Media (DMEM without phenol red, 1% L-Glut, 1% Penn/Strep, 1% nonessential amino acids, 10% heat-inactivated FBS). 2-fold serial dilutions of control and test compounds are added to the wells in duplicate in a total volume of 25 μL. Viral stock is then added to the wells at a multiplicity of infection (MOI) of 0.1 in a volume of 25 μL, bringing the total volume of each well to 100 μL. The MOI is calculated using the PFU/mL, or TCID50 if unavailable. Each 96-well plate has a control column of 6 wells with cells and virus but no compound (negative control, max CPE), a column with cells but no compound or virus (positive control, minimum CPE), and a column with no cells or virus or compound (background plate/reagent control). The control wells with cells but no virus are given an additional 25 μL of growth media containing an equal quantity of sucrose as those wells receiving the viral stock in order to keep consistent in media and volume conditions. The outer wells of the plate are filled with 125 μL of moat media (DMEM, 1% Penn/Strep) to act as a thermal and evaporative moat around the test wells. Following a 5-day incubation period, the plates are read using ATPlite (50 uL added per well), which quantifies the amount of ATP (a measure of cell health) present in each well. Assay plates are read using the Envision luminometer. […] EC50 ranges are as follows: A<0.2 μM; B≥0.2 μM.

Assay [2] has as its system rHMPV-GFP (recombinant HMPV CAN97-83, MPV-GFP1). Description: HMPV antiviral assay (eGFP fluorescence in Vero E6 cells). It is filed as cell-based. Conditions: human metapneumovirus, Vero C1008, 120 h, read-out: rHMPV-GFP EC50. The protocol: Method for HMPV Antiviral Assay
HMPV antiviral activity was evaluated using a recombinant version of HMPV CAN97-83 engineered to contain the coding sequence for enhanced green fluorescence protein (eGFP) in the 3′ end of the virus genome (MPV-GFP1, ViraTree). Vero E6 cells (ATCC #CCL-7) were seeded at a density of 12,000 cells/100 μL/well into 96-well cell plates (VENDOR) one day prior to the assay. On the day of screening, the cell culture medium was aspirated from the wells and cells were washed twice with serum-free Eagle's Modified Essential Medium (EMEM, ATCC #) containing 1% penicillin-streptomycin (Invitrogen) (SF-EMEM). Cell washes were performed by dispensing 100 μL SF-EMEM per well and immediately aspirating the wash medium from the well. Following the second wash step, serum-free OptiMEM (Invitrogen, Cat No.) (SF-OptiMEM) containing 0.5 μg/mL TPCK-Trypsin (VENDOR) and 1% penicillin-streptomycin was added to the cells at 50 μL/well. Compounds were added into the 96-well plates using a JANUS automated liquid handling system (VENDOR). Compounds were initially diluted 1:50 into an intermediate 96-well plate containing SF-OptiMEM prior to transfer to the assay plate (25 μL/well). Each of the test compounds were tested in duplicate wells at final concentrations starting from 8 μM or 2 μM using ½ stepwise dilutions for a total of 8 points. Virus infection was performed by preparing a working stock of MPV-GFP1 at a multiplicity of infection (MOI) equal to 0.05/25 μL and aliquoting 25 μL of virus inoculum to the compound and positive control wells. SF-OptiMEM was added (25 μL/well) to the appropriate wells to serve as a virus-free negative control for the assay. The final DMSO concentration of all wells is 0.5%. Plates were incubated at 32° C., 5% CO2 for 5 days. After 5 days incubation, eGFP fluorescence intensity was measured at […] using a Spectramax i3X plate reader (VENDOR).
Percent viral inhibition was calculated using the following equation: y=[[…](XQ/XP)]×100 Where XQ is the fluorescence intensity measured in a well containing recombinant MPV-GFP1-infected, compound-treated cells and XP is the average fluorescence intensity measured in the wells containing untreated cells infected with recombinant virus. EC50 values were then calculated by non-linear regression using a four-parameter curve logistic equation. The curve fit model employed was XLFit Dose Response One Site Model 200: y=(A+(B/(1+((x/C)^D)))) Where A is the minimum y value, B is the maximum y value, C is the log EC50 value, and D is the slope factor. The EC50 for each compound is listed in Table 2 and EC50 ranges are as follows: A<0.2 μM; B≥0.2 μM.

[3] abbreviates: 120 h, Hep-2 cells, MOI 0.1, 5-day incubation, ATPlite.

Structures are written as SMILES. Where two headings read alike, the source gives them in different places. Where only a bound is given, the exact number is not on record here.

Turning to `COc1cc(C(=O)NC[C@](O)(c2cc3c(c(-c4ccc(F)cc4)n2)OC[C@@]3(n2ccnn2)C(F)(F)F)C(F)(F)F)ccc1OC1CC1` [Example 1, 4-cyclopropoxy-3-methoxy-N-((S)-3,3,3-trifluoro-2-((R)-7-(4-fluorophenyl)-3-(1H-1,2,3-triazol-1-yl)-3-(trifluoromethyl)-2,3-dihydrofuro[2,3-c]pyridin-5-yl)-2-hydroxypropyl)benzamide], the EC50 in assay [1] (setting [3]) and in assay [2] was more than 200 nM throughout.
For the compound `COc1cc(C(=O)NC[C@](C)(O)c2cc3c(c(-c4ccc(F)cc4)n2)OC[C@@]3(n2cnnc2)C(F)(F)F)ccc1OC1CC1` [Example 2, 4-cyclopropoxy-N-((S)-2-((R)-7-(4-fluorophenyl)-3-(4H-1,2,4-triazol-4-yl)-3-(trifluoromethyl)-2,3-dihydrofuro[2,3-c]pyridin-5-yl)-2-hydroxypropyl)-3-methoxybenzamide], the values for the EC50 in assay [1] (setting [3]) and in assay [2] were less than 200 nM and more than 200 nM, respectively.
Regarding `COc1cc(C(=O)NC[C@](O)(c2cc3c(c(-c4ccc(F)cc4)n2)OC[C@@]3(n2cnnc2)C(F)(F)F)C2CC2)ccc1OC1CC1` [Example 3, 4-cyclopropoxy-N-((S)-2-cyclopropyl-2-((R)-7-(4-fluorophenyl)-3-(4H-1,2,4-triazol-4-yl)-3-(trifluoromethyl)-2,3-dihydrofuro[2,3-c]pyridin-5-yl)-2-hydroxyethyl)-3-methoxybenzamide], the EC50 in assay [1] (HEp-2, 120 h) was less than 200 nM; in assay [2], more than 200 nM.
For the compound `COc1cc(C(=O)NC[C@](O)(c2cc3c(c(-c4ccc(F)cc4)n2)OC[C@@]3(n2ccnc2)C(F)(F)F)C2CC2)ccc1OC1CC1` [Example 4, 4-cyclopropoxy-N-((S)-2-cyclopropyl-2-((R)-7-(4-fluorophenyl)-3-(1H-imidazol-1-yl)-3-(trifluoromethyl)-2,3-dihydrofuro[2,3-c]pyridin-5-yl)-2-hydroxyethyl)-3-methoxybenzamide], in assay [1] (HEp-2, 120 h), the EC50 was less than 200 nM.
As to `COc1cc(C(=O)NC[C@](O)(c2cc3c(c(-c4ccc(F)cc4)n2)OC[C@]3(C)n2cnnc2)C(F)(F)F)ccc1OC1CC1` [Example 6, 4-cyclopropoxy-3-methoxy-N-((S)-3,3,3-trifluoro-2-((R)-7-(4-fluorophenyl)-3-methyl-3-(4H-1,2,4-triazol-4-yl)-2,3-dihydrofuro[2,3-c]pyridin-5-yl)-2-hydroxypropyl)benzamide], the EC50 in assay [1] (setting [3]) was less than 200 nM; in assay [2], more than 200 nM.
As for `COc1cc(C(=O)NC[C@](O)(c2cc3c(c(-c4ccc(F)cc4)n2)OC[C@]3(C)n2cnnc2)C(F)(F)F)cc2cccnc12` [Example 7, 8-methoxy-N-((S)-3,3,3-trifluoro-2-((R)-7-(4-fluorophenyl)-3-methyl-3-(4H-1,2,4-triazol-4-yl)-2,3-dihydrofuro[2,3-c]pyridin-5-yl)-2-hydroxypropyl)quinoline-6-carboxamide], in assay [1] (setting [3]), the EC50 is more than 200 nM.
Take `COc1cc(C(=O)NC[C@](O)(c2cc3c(c(-c4ccc(F)cc4)n2)OC[C@]3(C)n2ccnc2)C(F)(F)F)cc2cccnc12` [Example 8, 8-methoxy-N-((S)-3,3,3-trifluoro-2-((R)-7-(4-fluorophenyl)-3-(1H-imidazol-1-yl)-3-methyl-2,3-dihydrofuro[2,3-c]pyridin-5-yl)-2-hydroxypropyl)quinoline-6-carboxamide]: the 50% effective concentration (EC50) in assay [1] (setting [3]) was less than 200 nM.
Consider `COc1cc(C(=O)NC[C@](O)(c2cc3c(c(-c4ccc(F)cc4)n2)OC[C@]3(C)n2ccnc2)C(F)(F)F)ccc1OC1CC1` [Example 9, 4-cyclopropoxy-3-methoxy-N-((S)-3,3,3-trifluoro-2-((R)-7-(4-fluorophenyl)-3-(1H-imidazol-1-yl)-3-methyl-2,3-dihydrofuro[2,3-c]pyridin-5-yl)-2-hydroxypropyl)benzamide], for which the values for the EC50 in assay [1] (setting [3]) and in assay [2] were less than 200 nM and more than 200 nM, respectively.
For `COc1cc(C(=O)NC[C@](O)(c2cc3c(c(-c4ccc(F)cc4)n2)OC[C@]3(C)n2cccc2)C(F)(F)F)cc2cccnc12` [Example 10, 8-methoxy-N-((S)-3,3,3-trifluoro-2-((R)-7-(4-fluorophenyl)-3-methyl-3-(1H-pyrrol-1-yl)-2,3-dihydrofuro[2,3-c]pyridin-5-yl)-2-hydroxypropyl)quinoline-6-carboxamide], the half-maximal effective concentration (EC50) in assay [1] (setting [3]) is more than 200 nM.
`COc1cc(C(=O)NC[C@](O)(c2cc3c(c(-c4ccc(F)cc4)n2)OC[C@]3(C)n2ccnn2)C(F)(F)F)ccc1OC1CC1` [Example 11, 4-cyclopropoxy-3-methoxy-N-((S)-3,3,3-trifluoro-2-((R)-7-(4-fluorophenyl)-3-methyl-3-(1H-1,2,3-triazol-1-yl)-2,3-dihydrofuro[2,3-c]pyridin-5-yl)-2-hydroxypropyl)benzamide]: the results for the EC50 in assay [1] (setting [3]) and in assay [2] were less than 200 nM and more than 200 nM, respectively.
As to `COc1cc(C(=O)NC[C@](O)(c2cc3c(c(-c4ccc(F)cc4)n2)OC[C@]3(C)n2cc(C3CC3)nn2)C(F)(F)F)ccc1OC1CC1` [Example 12, 4-cyclopropoxy-N-((S)-2-((R)-3-(4-cyclopropyl-1H-1,2,3-triazol-1-yl)-7-(4-fluorophenyl)-3-methyl-2,3-dihydrofuro[2,3-c]pyridin-5-yl)-3,3,3-trifluoro-2-hydroxypropyl)-3-methoxybenzamide], the EC50 in assay [1] (setting [3]) is less than 200 nM.
`COc1cc(C(=O)NC[C@](C)(O)c2cc3c(c(-c4ccc(F)cc4)n2)OC[C@]3(C)n2cnnc2)ccc1OC1CC1` [Example 13, 4-cyclopropoxy-N-((S)-2-((R)-7-(4-fluorophenyl)-3-methyl-3-(4H-1,2,4-triazol-4-yl)-2,3-dihydrofuro[2,3-c]pyridin-5-yl)-2-hydroxypropyl)-3-methoxybenzamide]: the EC50 is less than 200 nM in assay [1] (setting [3]) and more than 200 nM in assay [2].
Take `COc1cc(C(=O)NC[C@](C)(O)c2cc3c(c(-c4ccc(F)cc4)n2)OC[C@]3(C)n2cnnc2)cc2cccnc12` [Example 14, N-((S)-2-((R)-7-(4-fluorophenyl)-3-methyl-3-(4H-1,2,4-triazol-4-yl)-2,3-dihydrofuro[2,3-c]pyridin-5-yl)-2-hydroxypropyl)-8-methoxyquinoline-6-carboxamide]: the EC50 in assay [1] (setting [3]) is more than 200 nM.
Turning to `COc1cc(C(=O)NC[C@](O)(c2cc3c(c(-c4ccc(F)cc4)n2)OC[C@]3(C)c2nnn[nH]2)C(F)(F)F)cc2cccnc12` [Example 19, 8-methoxy-N-((S)-3,3,3-trifluoro-2-((S)-7-(4-fluorophenyl)-3-methyl-3-(1H-tetrazol-5-yl)-2,3-dihydrofuro[2,3-c]pyridin-5-yl)-2-hydroxypropyl)quinoline-6-carboxamide], the EC50 in assay [1] (setting [3]) is more than 200 nM.
